In patent US20110275574A1, “METHOD OF INHIBITING PROLIFERATION OF HEPATIC STELLATE CELLS” (Agency for Science, Technology and Research, priority 2009, published 2011):
d = 2'-deoxy (DNA); r = 2'-OH (RNA)

Experiments:
Cx43 mRNA = Cx43 mRNA expression by quantitative real-time PCR in HSC-2 cells; format: cell-based, rat; conditions: for down-regulation of Cx43 mRNA: HSC-2, Cx43 siRNA 10 nM, 48 hours, relative to mock-transfected
Method: (§1) Cell culture conditions: Primary hepatic stellate cells were isolated from male Wistar rats according to a previously published procedure (Weiskirchen and Gressner, 2005). The protocol was approved by the Institutional Animal Care and Use Committee (IACUC) of the Biomedical Research Council of Singapore. The purity of primary HSCs was assessed by vitamin A autofluorescence one day after isolation. The cell line HSC-2 was described elsewhere (Maubach et al., 2008). All cells were cultivated in a humidified 37° C. incubator circulated with 5% CO2. High glucose Dulbecco's modified Eagle medium (D-MEM) containing 10% fetal bovine serum, 100 units/ml penicillin and 100 μg/ml streptomycin was used during cell culture. Trypsin-EDTA was purchased from Biochrome (Germany). All other cell culture reagents were from Invitrogen (CA, USA).
(§2) Hepatic stellate cells treatment with recombinant human TGF-β1: Twenty four hours prior to treatment, HSCs were seeded in 75 cm^2 tissue culture flasks. At 60-70% cell confluence, recombinant human TGF-β1 (hTGF-[3]) was added at a final concentration of 1 or 10 ng/ml and incubated for 2, 6, 10, 24 or 30 hours. For the control treatment, only phosphate-buffered saline (PBS) was given to the cells. In some experiments, HSC-2 cells were treated with bisindolylmaleimide I (BIM I) at a final concentration of 5 μM for 30 min before treatment with 10 ng/ml hTGF-β1.
Reverse transcription and quantitative PCR: Total RNA was isolated from cells according to the manufacturer's protocol (RNA II kit, Machery-Nagel, Germany). All reagents for reverse transcription and real-time PCR were from Applied Biosystems (CA, USA). One microgram of total RNA was reverse transcribed to cDNA in a total reaction volume of 50 μl at conditions described in the RT kit (N8080234). Real-time PCR reactions were performed using the Fast Real Time PCR System (Applied Biosystems). Three microlitres of cDNA were used in a PCR reaction volume of 10 μl. The Taqman probes for target genes Cx43 and Snai1, as well as for endogenous control β-actin were Rn01433957_m1, Rn00441533_g1 and 4352341E, respectively. The PCR conditions were 95° C. for 20 s and 40 cycles of amplification at 95° C. for 3 s and 60° C. for 30 s.
(§3) Snai1 and connexin 43 siRNAs transfection: Shortly before transfection, 1−2×10^6 HSC-2 cells were seeded in 100 mm cell culture dishes and incubated at 37° C. The siRNA was added at a final concentration of 10 nM to 1 ml of D-MEM without serum, followed by 120 μl of HiPerfect transfection reagent (Qiagen, Germany) and incubated for 10 min. The siRNA/transfection reagent solution was added drop-wise to the cells and incubated for 24 or 48 hours. As mock control, only HiPerfect reagent was added to the cells. The Snai1 siRNAs used were Rn_Snai1—1 and Rn_Snai1—3 and the Cx43 siRNAs used were Rn_Gja1—1 and Rn_Gja1—5 (Qiagen, Germany).

HSC-2 cells [1] = assay: Cell counting (proliferation) of HSC-2 cells; format: cell-based, rat; conditions: for total number of cells: HSC-2, Cx43 siRNA 10 nM, 48 hours, versus mock-transfected
Method: as §3
Cell counting: After treatment, cells were washed once with PBS and detached using trypsin/EDTA. Following centrifugation at 800 rpm for 4 min, the cell pellet was resuspended in 1 ml D-MEM and the cells were counted using the forward scatter function of the GUAVA PCA-96 (Guava Technologies, CA, USA).

pCx43 Ser368 = assay: Phosphorylation of Cx43 at serine 368 by Western blot in HSC-2 cells; format: cell-based, rat
Method: as §2
SDS-PAGE and Western blot: Cell lysis and subsequent separation of total protein in SDS-PAGE followed by Western blot was performed as recently described (Lim et al., 2008). The membrane was blocked with 5% non-fat milk in TBS-Tween (TBS-T). The Cx43 (sc-9059, Santa Cruz Biotechnology, USA), phosphorylated Cx43 at serine 368 (pCx43 Ser368, 3511S, Cell Signaling Technology, USA), PCNA (Ab29, Abcam, UK) and β-actin (A2228, Sigma, USA) primary antibodies were applied at a dilution of 1:1000, 1:750, 1:5000 and 1:7500 respectively in blocking solution. […] Semi-quantitative densitometric analysis of Western blots was performed using the ImageJ software (W. Rasband, NIH; rsb.info.nih.gov/ij/).

PCNA = assay: Expression of proliferation marker PCNA by Western blot in HSC-2 cells; format: cell-based, rat; conditions: HSC-2, 10 ng/ml hTGF-β1, 48 hours
Method: (§4) SDS-PAGE and Western blot: Cell lysis and subsequent separation of total protein in SDS-PAGE followed by Western blot was performed as recently described (Lim et al., 2008). The membrane was blocked with 5% non-fat milk in TBS-Tween (TBS-T). The Cx43 (sc-9059, Santa Cruz Biotechnology, USA), phosphorylated Cx43 at serine 368 (pCx43 Ser368, 3511S, Cell Signaling Technology, USA), PCNA (Ab29, Abcam, UK) and β-actin (A2228, Sigma, USA) primary antibodies were applied at a dilution of 1:1000, 1:750, 1:5000 and 1:7500 respectively in blocking solution. After three washes in TBS-T, the appropriate secondary antibody conjugated with horse radish peroxidase (Santa Cruz Biotechnology, USA) was added at a dilution of 1:2000 in blocking solution. After three washes in TBS-T, the membrane was developed with ECL Plus (RPN2132, GE Healthcare, UK). The incubation with pCx43 antibody was performed overnight at 4° C. All other incubations were carried out for 1 hour at room temperature. Semi-quantitative densitometric analysis of Western blots was performed using the ImageJ software (W. Rasband, NIH; rsb.info.nih.gov/ij/).
Snai1 and connexin 43 siRNAs transfection: Shortly before transfection, 1−2×10^6 HSC-2 cells were seeded in 100 mm cell culture dishes and incubated at 37° C. […]

HSC-2 cells [2] = assay: gap-FRAP analysis of gap junction intercellular communication; format: cell-based, rat
Method: Analysis of gap junction intercellular communication: HSC-2 cells were grown in a 60 mm cell culture dish overnight. At 90% cell confluence, hTGF-β1 (final concentration 10 ng/ml) or carbenoxolone (final concentration 40 μM) was added and incubated for 6 hours. As control, only PBS was given to the cells. Alternatively, BIM I (final concentration 5 μM) was added 30 minutes before the addition of hTGF-[3]. After a brief rinse in PBS, cells were incubated in D-MEM without phenol red, containing 5,6-carboxyfluorescein diacetate (Research Organics, USA) at a final concentration of 50 μg/ml and incubated in a 37° C. humidified incubator for 30 min. The cells were then rinsed twice with PBS and D-MEM without phenol red was added before proceeding with the Fluorescence Recovery After Photobleaching (FRAP) assay. The FRAP application included in the software package of the LEICA TCS SP2 equipped with the DM6000 (LEICA, Germany) was used. A 63× immersed objective (Leica HCX APO L U-V-I 63×/0.90 Water UV) was used. The argon laser at 488 nm was used for excitation and the fluorescence signal was captured between 500 and 535 nm. The conditions were as follows: 5 pre-bleach scans at 10% laser power, 40 bleach scans at 100% laser power followed by 60 post-bleach scans at 15 seconds intervals. During the bleaching period, the Zoom mode was used to bleach a single cell (target cell) defined in a region of interest (ROI). All data were corrected for photobleaching during post-bleach acquisition using the whole scanned area. The time constant of recovery, tau (τ), was estimated by fitting the corrected experimental data (OriginPro 7 SR4, OriginLab USA) to the following function: F(t)=F0+(F∞−F0)(1−e^−t/τ), with F(t) being the corrected fluorescence intensity and F∞ being the asymptotic value of the fluorescence intensity. The transfer constant (k) was calculated from k=1/τ and normalized by dividing by the number of cells in contact with the target cell. The fluorescence recovery for each cell was about 50%.

Snai1 mRNA = Snai1 mRNA expression in in vitro activated primary HSCs; format: cell-based, rat; conditions: 1 and 10 ng/ml hTGF-β1, 10 hours
Method: as §1
as §2, with “In some experiments, HSC-2 cells were treated with bisindolylmaleimide I (BIM I) at a final concentration of 5 μM for 30 min before treatment with 10 ng/ml hTGF-β1.” left out
Reverse transcription and quantitative PCR: Total RNA was isolated from cells according to the manufacturer's protocol (RNA II kit, Machery-Nagel, Germany). […]

[3] = system: Snai1 consensus sequence in the Cx43 promoter; assay: Electrophoretic mobility shift assay, HSC-2 nuclear extract on Snai1 consensus sequence of rat Cx43 promoter; format: cell-based; conditions: nuclear extract of HSC-2, 10 ng/ml hTGF-β1 2 hours, versus untreated
From the text: Electrophoretic mobility shift assay: Based on the rat Cx43 gene (NW—001084790), biotinylated double-stranded oligonucleotide probe […]-3 [SEQ ID NO: 12], with the Snai1 consensus sequence (underlined), was synthesized (Research Biolabs, Singapore). In the mutated double-stranded oligonucleotide, the Snai1 consensus sequence was changed to CAGGAA. Nuclear protein extract was obtained using the NE-PER Nuclear and Cytoplasmic Extraction kit (Pierce, USA). The electrophoretic mobility shift assay was performed using reagents from the Snai1 kit according to its protocol (AY1398, Panomics, USA). Briefly, 5 μg nuclear protein extract was incubated in a reaction mixture consisting of poly d(1-C), 5× binding buffer and nuclease-free water for 5 min before addition of 1 μl probe (stock 20 nM). The total reaction volume was 10 μl. For competition assay, 2 μl unlabeled probe (stock 2 μM) was added 5 min prior to the addition of labeled probe. The reaction was incubated at 15° C. for 30 min. The samples were separated in a 6% non-denaturing polyacrylamide gel (Invitrogen) and transferred onto a nylon membrane.

Cx43 protein = Cx43 protein expression by Western blot in HSC-2 cells; format: cell-based, rat
Method: as §2, with “At 60-70% cell confluence, recombinant human TGF-β1 (hTGF-[3]) was added at a final concentration of 1 or 10 ng/ml and incubated for 2, 6, 10, 24 or 30 hours.” left out
as §4, with “The incubation with pCx43 antibody was performed overnight at 4° C. All other incubations were carried out for 1 hour at room temperature.” left out, “rsb.info.nih.gov/ij/). […]” for “rsb.info.nih.gov/ij/).”

Snai1 = Snai1 mRNA and protein expression (real-time PCR, Western blot) in HSC-2 cells; format: cell-based, rat
Method: as §2
Reverse transcription and quantitative PCR: Total RNA was isolated from cells according to the manufacturer's protocol (RNA II kit, Machery-Nagel, Germany). All reagents for reverse transcription and real-time PCR were from Applied Biosystems (CA, USA). One microgram of total RNA was reverse transcribed to cDNA in a total reaction volume of 50 μl at conditions described in the RT kit (N8080234). Real-time PCR reactions were performed using the Fast Real Time PCR System (Applied Biosystems). […]
SDS-PAGE and Western blot: Cell lysis and subsequent separation of total protein in SDS-PAGE followed by Western blot was performed as recently described (Lim et al., 2008). […] Semi-quantitative densitometric analysis of Western blots was performed using the ImageJ software (W. Rasband, NIH; rsb.info.nih.gov/ij/). […]

[4] = HSC-2, 10 ng/ml hTGF-β1, up to 30 hours
[5] = HSC-2, 10 ng/ml hTGF-β1, 48 hours

In the case of “Cx43 siRNA 1: Cx43 siRNA, sense strand r(CAG UGC ACA UGU AAC UAA U)dTdT [SEQ ID NO: 6], antisense SEQ ID NO: 7 (Qiagen) (sense CAGUGCACAUGUAACUAAUTT; antisense AUUAGUUACAUGUGCACUGTT; sugars from the 5' end r19 d2, backbone not given here)”, the “down-regulation of Cx43 mRNA” value (Cx43 mRNA) is reported as “about 65%” and the “total number of cells” value (HSC-2 cells [1]) is reported as “significant decline”.
With “hTGF-β1: recombinant human TGF-β1, pro-fibrogenic cytokine added to HSCs” the “phosphorylation of Cx43 at serine 368” value (pCx43 Ser368; HSC-2, 10 ng/ml hTGF-β1, 6 hours) was “increase”, the “expression of PCNA” value (PCNA) was “significant reduction” and the “transfer rate of the fluorescence dye 5,6-carboxyfluorescein diacetate” value (HSC-2 cells [2]; HSC-2, 10 ng/ml hTGF-β1, 6 hours, versus PBS control) was “significantly lower”. For the same compound, the “Snai1 mRNA” value (Snai1 mRNA) was “induced”, the “decrease of Cx43 transcripts” value (Cx43 mRNA; HSC-2, 1 ng/ml hTGF-β1, 10 hours) was 30% and the “decrease of Cx43 transcripts” value (Cx43 mRNA; HSC-2, 10 ng/ml hTGF-β1, 10 hours) was 45%. For the same compound, the “Cx43 transcript and protein expression” value (Cx43 mRNA; [4]) was “decrease”, the cell number (HSC-2 cells [1]; [5]) was “significant reduction” and the “EMSA band of Snai1-oligonucleotide complex” value [3] was “more intense band”. The “expression of Cx43” value (Cx43 protein; [5]) was “significant reduction”, the Cx43 protein regulation (Cx43 protein; HSC-2, 1 and 10 ng/ml hTGF-β1, 24 hours) was “down-regulated” and the “Snai1 transcript and protein expression” value (Snai1; [4]) was “increase”. For the same compound, the “Snai1 mRNA” value (Snai1; HSC-2, 1 and 10 ng/ml hTGF-β1, 10 hours) was “induced”.
For `CC1(C)[C@@H](OC(=O)CCC(=O)O)CC[C@]2(C)[C@H]3C(=O)C=C4[C@@H]5C[C@@](C)(C(=O)O)CC[C@]5(C)CC[C@@]4(C)[C@]3(C)CC[C@@H]12` [carbenoxolone], the “dye transfer rate (k), reduced to” value (HSC-2 cells [2]; HSC-2, 40 μM carbenoxolone, 6 hours) was “about 50%”.
`CN(C)CCCn1cc(C2=C(c3c[nH]c4ccccc34)C(=O)NC2=O)c2ccccc21` [BIM I, bisindolylmaleimide I, reference compound] was tested, and the “phosphorylation of Cx43 at serine 368 after hTGF-β1” value (pCx43 Ser368; HSC-2, 5 μM BIM I 30 min before 10 ng/ml hTGF-β1) was “reduces” and the “TGF-β1-induced down-regulation of GJIC” value (HSC-2 cells [2]; HSC-2, 5 μM BIM I 30 minutes before 10 ng/ml hTGF-β1) was “attenuated”.
“Cx43 siRNA 5: Cx43 siRNA, sense strand r(GGU AAG CUU CCC UGG UCU A)dTdT [SEQ ID NO: 9], antisense SEQ ID NO: 10 (Qiagen) (sense GGUAAGCUUCCCUGGUCUATT; antisense UAGACCAGGGAAGCUUACCTT; sugars from the 5' end r19 d2, backbone not given here)” was tested, and the “down-regulation of Cx43 mRNA” value (Cx43 mRNA) was “about 65%” and the “total number of cells” value (HSC-2 cells [1]) was “significant decline”.
